According to a melting point compilation (Tetko et al.; mined from patent text by program, amines drawn as free bases though some values may be those of a salt):

melting point	SMILES
110 °C	O=C(Cc1cccc(OCCCN(Cc2cccc(C(F)(F)F)c2Cl)CC(c2ccccc2)c2ccccc2)c1)NS(=O)(=O)c1ccccc1
170 to 171 °C	CC(C)S(=O)(=O)NC[C@@H](C)c1ccc(-c2ccc3c(c2)CC(=O)N3)cc1
185 °C	N#CC(=Cc1ccc2[nH]ccc2c1)C(=O)c1ccc(O)c(O)c1
149 to 151 °C	COc1ccc(NC(=S)C(N)=O)cc1OC
84 to 87 °C	CCOC(=O)C(O)c1cc(F)cc2cccnc12 (stereo unspecified)
172 to 175 °C	NN1C(=O)c2ccc(Cl)cc2C1=O
125 to 126 °C	CNC(=S)C1=CC(CF)(CF)Oc2ccc(C(F)(F)C(F)(F)C(F)(F)F)cc21
174 to 177 °C	CC1=Cc2ccncc2C(C)(NS(=O)(=O)c2ccc(C)cc2)c2ccccc21 (stereo unspecified)
187 °C	Cc1nnsc1C(=O)NS(C)(=O)=O
207 to 209 °C	C1=NCC2=C3C(=C1)CCCC3CCC2 (stereo unspecified)
148 °C	O=C(C=C1OC(=O)c2cccc(Cl)c21)c1ccccc1
104 to 106 °C	O=S(=O)(NCCCO)c1c(Cl)cc(Cl)cc1Cl
74 to 75 °C	COC(=O)c1cccc(OC)c1OCCC#N
124 to 125 °C	O=C(Nc1c([N+](=O)[O-])cc(F)c(Cl)c1F)C(F)(F)F
182 to 183 °C	Fc1cccc(CSc2nnc(-c3ncnc4[nH]ccc34)o2)c1
55 to 57 °C	O=Cc1cccc2oc3c(c12)CCCC3
144 to 148 °C	Cc1cc(S(N)(=O)=O)sc1S(=O)(=O)CCO
75 to 77 °C	O=c1oc(OCCCCBr)c(Cl)c2ccccc12
141 to 143 °C	CCc1cc(C#N)c(=O)[nH]c1COCc1ccccc1
122 to 126 °C	O=C1c2cccc(OCc3ccccc3)c2C(=O)c2c(Cl)ccc(Cl)c21
203 to 205 °C	Cc1cn(-c2cccc(O)c2)cn1
94 to 97 °C	CCOC(=O)c1ccc(NCCc2ccc(OCc3ccccc3)cc2)cc1
112 °C	CCCCOc1ccc(S(=O)(=O)C2(C(=O)O)CCN(Cc3ccc(F)cc3)CC2)cc1

melting point	SMILES
285 °C	CCOC(=O)c1cnc2c(F)c(Br)c(F)cc2c1O
159 °C	O=C(CCCCCCNS(=O)(=O)c1ccc(C(=O)Nc2ccc(Cl)c(-c3ccccn3)c2)c(Cl)c1)NO
188 to 190 °C	Cc1c(CCC2CC(O)CC(=O)O2)c2c(c(C)c1OC(=O)c1ccccc1)CC(C)(C)O2 (stereo unspecified)
65 to 66 °C	Cc1oncc1C(=O)c1ccc(Cl)cc1
255 to 256 °C	CC1CCC(=NNc2ccccc2)c2ncc(C(=O)O)c(=O)n21 (single isomer, unassigned; (-))
184 to 186 °C	Cc1cc(Cn2c(-c3ccccc3)nc(Cl)c2CO)ccc1OCc1ccccc1
191 to 193 °C	O=C1CCCc2sc(CCN3CCC(c4csc5cc(F)ccc45)CC3)cc2N1
234 °C	O=C(NC1CCOCC1)c1ccc(-c2cc(-c3c(-c4cccc(Cl)c4)nc4ccccn34)ccn2)cc1
228 to 230 °C	Cc1cc(-c2c(-c3ccc(S(C)(=O)=O)cc3)cnn(-c3cccc(Cl)c3)c2=O)ccc1F
163 to 165 °C	CCOC(=O)Cc1c(C(C)C(=O)O)c2cc(OC)ccc2n1Cc1ccc(Cl)cc1 (stereo unspecified)
107 to 108 °C	CC(C)(C)OC(=O)NCCc1cccc(OCCC2Oc3ccccc3N(Cc3cccc(Cl)c3)C2=O)c1 (stereo unspecified)
109 to 110 °C	COc1ccccc1N(CN1CCOC1=O)C(=O)CCl
250 to 251 °C	Cn1cnc(COc2nn3c(-c4cccc(F)c4)nnc3cc2-c2ccccc2)n1
111 to 112 °C	COC(=O)Cc1ccc2c(c1)C(=O)Cc1ccccc1C2
155 to 157 °C	O=c1ccn(-c2cccc(C(F)(F)F)c2)nc1-c1ccnn1CC1CC1
304 °C	O=c1[nH]c2ncccc2c(=O)n1-c1ccccc1
225 to 227 °C	COc1ccc(-c2cnn3c(-c4cccc(NC(=O)CC(C)C)c4)ccnc23)cc1
72 to 73 °C	CC(C)c1nc(C(C)C)c(CC=Cc2ccccc2)c(-c2ccc(F)cc2)c1CO
162 to 163 °C	CC(C)(C)c1ccc(/C=N/OCc2ccc(C(=O)O)c(Br)c2)cc1
150 to 152 °C	CCCN1CC(c2ccc(F)cc2)=C(c2ccc(S(C)(=O)=O)cc2)C1=O
310 to 312 °C	NS(=O)(=O)c1ccc(-c2[nH]c3ccc(Br)cc3c2-c2ccccc2)cc1
165 to 166 °C	O=C(Cn1c(-c2cccc(Cl)c2)nc2cccnc21)Nc1ccccn1
109 to 110 °C	COC(=O)c1ccc(Oc2ccccc2C=O)c([N+](=O)[O-])c1

melting point	SMILES
66.2 to 67.1 °C	C=CCOC(=O)CCC(NC(=O)OCC1c2ccccc2-c2ccccc21)C(=O)OCc1ccccc1 (stereo unspecified)
124 to 127 °C	Cc1cc(-c2ccc(C(F)(F)F)cc2)nc(Oc2cccc(C(F)(F)F)c2)n1
176 to 178 °C	CCOC(=O)C(C#N)C(=O)c1nn(-c2ccccc2)c2c1CSc1ccccc1-2 (stereo unspecified)
130 to 135 °C	N#Cc1cccc(OC2SCC(O)C(O)C2O)c1 (stereo unspecified)
94 to 96 °C	CCOC(=O)c1cc(C(=O)OC)c(=O)oc1C
138 to 139 °C	O=C(Cn1ncc(-c2ccccc2)c1-c1ccccc1)NCCCO
164 to 166 °C	O=C1C(=CNCCO)Cc2c(Cl)cccc21
110 to 112 °C	COc1ccc2c(c1)C(=O)C(Cc1cccc(N)c1)C(C)O2 (stereo unspecified)
246 to 248 °C	O=C1NC(=O)C(c2c3n(c4ccccc24)CCC(CO)C3)=C1c1coc2ccccc12 (stereo unspecified)
76 to 77 °C	CCN(CC)C(=O)n1ccc(S(=O)(=O)c2cccc(Cl)c2C)n1
55 to 57 °C	CC1(C)OC(C=Cc2ccc(F)cc2)=CC1=O
133 to 134 °C	CCOC(=O)c1c(C)noc1NS(=O)(=O)c1ccccc1-c1ccc(CC(C)C)cc1
145 to 147 °C	COCCO[C@@H]1c2ccn3c(Cl)c(C)nc3c2N(C(C)=O)[C@H](c2ccccc2)[C@H]1OC(=O)C(C)(C)C
154 °C	CC(=O)Nc1ccc(C=O)c(F)c1F
107 °C	CC(C)(C)C(=O)Nc1cccc(C(F)(F)F)c1
90 to 92 °C	CC(C)(C)CNc1nc(C#Cc2ccccc2)ccc1[N+](=O)[O-]
114 to 116 °C	O=S(CCCCCOc1ccc(C2=C(c3ccccc3)CCCc3ccccc32)cc1)CCCC(F)(F)C(F)(F)F (stereo unspecified)
152 to 154 °C	c1ccc(CNc2nc(-c3ccco3)nc3ccccc23)cc1
238 to 239 °C	O=C(O)Cn1c(-c2ccccc2)c(Cc2nc3c(F)c(F)cc(F)c3s2)c2ccccc21
127 to 128 °C	COC(=O)CN(C(=O)c1ccc(Cl)cc1)c1ccccc1CCC#N
95 to 97 °C	CCCCNC(=O)N1C2=NC(C)(C)N(C)C(=O)N2c2ccccc21
150 to 152 °C	Cc1ccccc1C(=O)c1[nH]c2cc(Cl)ccc2c1CC(=O)O
229 to 230 °C	Cc1oc(-c2ccccc2)nc1COc1cccc(C=CC=C2OC(=O)NC2=O)c1

SMILES	melting point
COc1ccc(N2C(=O)CCN(C)c3ccc(Cl)cc32)cc1	144 to 145 °C
COc1cccc2c1C(O)CC21CCN(CCCC(=O)c2ccc(F)cc2)C1 (stereo unspecified)	152 to 154 °C
